From patent US4590191A, “Soporific containing lorazepam” (Medichemie AG, priority 1984, dated 1986)
Where two headings read alike, the source gives them in different places.

Key:
white mice = test: Acute oral toxicity (lethality) in mice; conditions: oral, mice
Text: (§1) and of the combined preparation of 25 parts by weight
Doses in mg/kg Body Weight

[1] = cited from earlier work
[2] = Acute oral toxicity (lethality) in mice; conditions: mouse, in vivo, po
Text: as §1
Doses in mg/kg Body Weight

CN(C)CCOC(c1ccccc1)c1ccccc1 [diphenhydramine, 2-(diphenyl-methoxy)-N,N-dimethyl ethanamine]
DL 95 (white mice): 645 mg/kg

O=C1Nc2ccc(Cl)cc2C(c2ccccc2Cl)=NC1O (stereo not shown) [lorazepam, 7-chlor-5-(2-chlorphenyl)-1,3-dihydro-3-hydroxy-2H-1,4 benzodiazepin-2-on]
hypnotic or soporific effect (in words) ([1]; 1 mg): often insufficient | side effects (in words) ([1]; 2 to 3 mg, in individual cases): subjectively unpleasant side effects can occur | half-life (in words) ([1]; in vivo): medium half-life | ratio between effect and tolerance (in words) ([1]; single dose of 1 mg): especially good ratio between effect and tolerance | side effects (in words) ([1]; somewhat higher doses, may occur in the next few days): relatively strong side effects, such as muscle relaxation, ataxia and sedative after-effects | LD50 [2]: 3180 mg/kg
